# Data as given in PubChem BioAssay AID1963433 (Molecular Pharmacology Branch, DTP, NCI, 2024).
# System: 772245-204-R-J1-PDC complex spheroid growth
# Assay: Anticancer human tumor 772245-204-R-J1-PDC patient-derived rhabdomyosarcoma cell line growth inhibition [Asc]
# Settings: for IC50: curve of first compound; for viability, T/C: stronger effect = lower value
# Summary of the method: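 Tumor cells were grown as multicellular spheroids with stromal HUVEC and mesenchymal stem cells and treated singly or in combination. Concentrations fell in half-log steps from the clinical Cmax, or from 10 microM where none was known.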
# 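Also: compound exposure lasted seven days.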
# 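For viability, T/C in this document: 100% = DMSO vehicle control viability.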
smiles,measurement,setting,value
Cc1nc(N2CCC3(CC2)COC(C)C3N)c(CO)nc1Sc1ccnc(N)c1Cl (configuration not stated) + CNC(C)C(=O)NC1CN(S(=O)(=O)c2cccc(S(=O)(=O)N3CCC4CCC(C(=O)NC(c5ccccc5)c5ccccc5)N4C(=O)C(NC(=O)C(C)NC)C3)c2)CCC2CCC(C(=O)NC(c3ccccc3)c3ccccc3)N2C1=O,IC50,second compound 0.00316 µM,> 3 µM
same,IC50,second compound 0.01 µM,> 3 µM
same,IC50,second compound 0.0316 µM,> 3 µM
same,IC50,second compound 0.1 µM,> 3 µM
same,IC50,second compound 0.316 µM,> 3 µM
same,IC50,second compound 1 µM,> 3 µM
same,"viability, T/C","second compound 0.00316 µM, first compound 0.00949 µM",101%
same,"viability, T/C","second compound 0.00316 µM, first compound 0.03 µM",105%
same,"viability, T/C","second compound 0.00316 µM, first compound 0.0949 µM",109%
same,"viability, T/C","second compound 0.00316 µM, first compound 0.3 µM",105%
same,"viability, T/C","second compound 0.00316 µM, first compound 0.949 µM",115%
same,"viability, T/C","second compound 0.00316 µM, first compound 3 µM",92.9%
same,"viability, T/C","second compound 0.01 µM, first compound 0.00949 µM",108%
same,"viability, T/C","second compound 0.01 µM, first compound 0.03 µM",93.4%
same,"viability, T/C","second compound 0.01 µM, first compound 0.0949 µM",107%
same,"viability, T/C","second compound 0.01 µM, first compound 0.3 µM",117%
same,"viability, T/C","second compound 0.01 µM, first compound 0.949 µM",102%
same,"viability, T/C","second compound 0.01 µM, first compound 3 µM",75.4%
same,"viability, T/C","second compound 0.0316 µM, first compound 0.00949 µM",104%
same,"viability, T/C","second compound 0.0316 µM, first compound 0.03 µM",99.3%
same,"viability, T/C","second compound 0.0316 µM, first compound 0.0949 µM",105%
same,"viability, T/C","second compound 0.0316 µM, first compound 0.3 µM",101%
same,"viability, T/C","second compound 0.0316 µM, first compound 0.949 µM",88.3%
same,"viability, T/C","second compound 0.0316 µM, first compound 3 µM",78.6%
same,"viability, T/C","second compound 0.1 µM, first compound 0.00949 µM",105%
same,"viability, T/C","second compound 0.1 µM, first compound 0.03 µM",99.1%
same,"viability, T/C","second compound 0.1 µM, first compound 0.0949 µM",88.4%
same,"viability, T/C","second compound 0.1 µM, first compound 0.3 µM",98.6%
same,"viability, T/C","second compound 0.1 µM, first compound 0.949 µM",99.6%
same,"viability, T/C","second compound 0.1 µM, first compound 3 µM",75.9%
same,"viability, T/C","second compound 0.316 µM, first compound 0.00949 µM",101%
same,"viability, T/C","second compound 0.316 µM, first compound 0.03 µM",90.6%
same,"viability, T/C","second compound 0.316 µM, first compound 0.0949 µM",91.4%
same,"viability, T/C","second compound 0.316 µM, first compound 0.3 µM",99.1%
same,"viability, T/C","second compound 0.316 µM, first compound 0.949 µM",86.8%
same,"viability, T/C","second compound 0.316 µM, first compound 3 µM",74.7%
same,"viability, T/C","second compound 1 µM, first compound 0.00949 µM",95.8%
same,"viability, T/C","second compound 1 µM, first compound 0.03 µM",89%
same,"viability, T/C","second compound 1 µM, first compound 0.0949 µM",104%
same,"viability, T/C","second compound 1 µM, first compound 0.3 µM",90.6%
same,"viability, T/C","second compound 1 µM, first compound 0.949 µM",93.6%
same,"viability, T/C","second compound 1 µM, first compound 3 µM",66.9%
